# Experiments:
# Type in all cases: cell-based
# STAT3 = biological target: T1, STAT3 (Homo sapiens, UniProt P40763); experiment: STAT3 reporter gene (luciferase) assay in LNCaP stable cell line stimulated with IL-6; conditions: LNCaP stable cell line (pSTAT3-TA-luc), IL-6 10 ng/mL, 24 hours
# T1 construct: plasmid pSTAT3-TA-luc), which contains a stably operating STAT3 promoter; endogenous in cells
# Description: 1-1) Experiment on the Inhibition of STAT3 Activity
# A human prostate cancer cell line (LNCaP stable cell line; plasmid pSTAT3-TA-luc), which contains a stably operating STAT3 promoter, was cultured in RPMI1640 medium (Cat No. 11875, Life Technologies) containing 10% fetal bovine serum (FBS) (Cat No. SH30396, Thermo Scientific) and 150 μg/mL G-418 solution (Cat No. 04 727 894 001, Roche). The reporter gene assay using LNCaP stable cell line was performed in RPMI1640 medium containing 3% DCC-FBS without G-418 solution. LNCaP stable cells were plated in two (2) white 96-well plates with 30,000 cells/50 μL in each well. The cells were cultured at 37° C., under 5% CO2 for 24 hours, and then treated with the compounds listed in Examples which were diluted in various concentrations. Subsequently, IL-6 was added to each well with a final concentration of 10 ng/mL. Upon completion of the treatment with the compounds and IL-6, the cells were cultured at 37° C., under 5% CO2 for 24 hours. The plates were observed under microscope and drug precipitation and particular findings were investigated and recorded.
# The luciferase assay and the cell viability assay were performed respectively with one of the two plates. For the luciferase assay, the liquid media in the 96-well plate was removed, and then, 20 μL of passive cell lysis buffer was added to each well. After shaking the plate for 30 minutes, luciferase activities of each well were measured in a PHERAstar™ microplate reader (BMG LABTECH) using a luciferase assay system (Cat No. E1501, Promega). For the cell viability assay, the 96-well plate was placed at room temperature for 30 minutes, added with 20 μL/well of CellTiter-Glo solution (Cat No. G7573, Promega), and shaken for 10 minutes in order to measure cytotoxicity caused by the compounds listed in Examples with a PHERAstar™ microplate reader (BMG LABTECH). Wells without 0.1% DMSO and stimulation were used as a negative control and wells with 0.1% DMSO and stimulation were used as a positive control.
# The results of evaluation on the inhibitory effect of the compounds listed in the Examples on the dimerization of STAT3 and STAT1 obtained via the STAT3 and STAT1 reporter gene assays are shown in Table 6 below.
# NCI-N87 = experiment: Cell growth inhibition assay (CellTiter-Glo), stomach cancer cell line NCI-N87; conditions: Homo sapiens; NCI-N87 cells, 96 hours
# Description: (§1) The inhibitory effects of the compounds of the present invention against the growth of cancer cells were evaluated as shown below. The cancer cell lines including stomach cancer cell line (NCI-N87) and breast cancer cell line (MDA-MB-468) were cultured under the protocol provided by each supplier. Each type of cells to be used in experiments was sub-cultured in a 96-well plate by counting the exact number of cells using Tali™ Image-based Cytometer (Life Technologies). In a 96-well plate, NCI-N87 was employed with 5,000 cells/well; and MDA-MB-468 was employed with 10,000 cells/well. The cells were treated with the compounds listed in Examples which were diluted in various concentrations. Upon completion of the compounds treatment, NCI-N87 cells were cultured at 37° C. under 5% CO2 for 96 hours, and MDA-MB-468 cells were cultured at 37° C. in air for 96 hours. Subsequently, the cells were observed under microscope and drug precipitation and particular findings were investigated and recorded. And then, the 96-well plate was placed at room temperature for 30 minutes, added with 20 μL/well of CellTiter-Glo solution (Cat No. G7573, Promega) and shaken for 10 minutes, followed by being subjected to the measurement using PHERAstar™ microplate reader (BMG LABTECH) according to the supplier's general luminometer protocol. Wells where only culture liquid added without cell plating were used as a negative control, whereas wells where culture liquid containing 0.1% DMSO instead of the compounds listed in Examples were used as a positive control.
# MDA-MB-468 = experiment: Cell growth inhibition assay (CellTiter-Glo), breast cancer cell line MDA-MB-468; conditions: Homo sapiens; MDA-MB-468 cells, 96 hours
# Description: as §1
# T1 sequence (P40763 whole entry): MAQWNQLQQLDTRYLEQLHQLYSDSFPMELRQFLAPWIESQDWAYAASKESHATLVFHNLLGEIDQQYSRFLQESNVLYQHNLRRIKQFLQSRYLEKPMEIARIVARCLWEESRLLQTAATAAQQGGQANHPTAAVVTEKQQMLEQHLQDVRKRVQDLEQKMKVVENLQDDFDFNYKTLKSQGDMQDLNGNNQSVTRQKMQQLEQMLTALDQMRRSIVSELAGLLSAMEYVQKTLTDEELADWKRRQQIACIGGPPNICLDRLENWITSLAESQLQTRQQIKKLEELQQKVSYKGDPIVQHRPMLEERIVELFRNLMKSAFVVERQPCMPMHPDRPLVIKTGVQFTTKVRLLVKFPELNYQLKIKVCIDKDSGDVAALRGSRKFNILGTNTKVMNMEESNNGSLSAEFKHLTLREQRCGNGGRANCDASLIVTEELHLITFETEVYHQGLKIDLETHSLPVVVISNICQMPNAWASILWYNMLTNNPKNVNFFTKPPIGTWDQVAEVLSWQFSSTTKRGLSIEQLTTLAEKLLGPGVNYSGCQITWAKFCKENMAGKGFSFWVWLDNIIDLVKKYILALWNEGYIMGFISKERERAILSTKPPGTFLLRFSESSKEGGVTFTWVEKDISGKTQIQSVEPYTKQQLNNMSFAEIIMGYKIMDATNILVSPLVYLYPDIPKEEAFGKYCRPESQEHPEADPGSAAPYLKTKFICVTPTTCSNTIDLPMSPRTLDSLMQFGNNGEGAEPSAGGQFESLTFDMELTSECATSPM
SMILES,IC50 (STAT3),IC50 (NCI-N87),IC50 (MDA-MB-468)
"CN1CCN(S(C)(=O)=O)c2cc3cc(C(=O)Nc4cc(Cl)nc(Oc5ccc(Cl)cc5)c4)sc3cc21 [Example 7, N-(2-chloro-6-(4-chlorophenoxy)pyridin-4-yl)-4-methyl-1-(methylsulfonyl)-1,2,3,4-tetrahydrothieno[2,3-g]quinoxaline-7-carboxamide]",0.012 µM,0.027 µM,0.0065 µM
"CS(=O)(=O)C1CCOc2cc3sc(C(=O)Nc4cc(Cl)nc(Oc5cccc(OC(F)(F)F)c5)c4)cc3cc21 (stereo not drawn) [Example 29, N-(2-chloro-6-(3-(trifluoromethoxy)phenoxy)pyridin-4-yl)-4-(methylsulfonyl)-3,4-dihydro-2H-thieno[3,2-g]chromene-7-carboxamide]",0.0059 µM,0.0046 µM,0.0029 µM
"COc1cc(F)cc(Oc2cc(NC(=O)c3cc4cc5c(cc4s3)OCCC5S(C)(=O)=O)cc(Cl)n2)c1 (stereo not drawn) [Example 32, N-(2-chloro-6-(3-fluoro-5-methoxyphenoxy)pyridin-4-yl)-4-(methylsulfonyl)-3,4-dihydro-2H-thieno[3,2-g]chromene-7-carboxamide]",0.016 µM,0.031 µM,0.0089 µM
"CC(C)(c1ccc(Cl)cc1)c1cc(Cl)cc(NC(=O)c2cc3cc4c(cc3s2)OCCN4S(C)(=O)=O)c1 [Example 56, N-(3-chloro-5-(2-(4-chlorophenyl)propan-2-yl)phenyl)-1-(methylsulfonyl)-2,3-dihydro-1H-thieno[3′,2′:4,5]benzo[1,2-b][1,4]oxazine-7-carboxamide]",0.0028 µM,0.019 µM,–
"CS(=O)(=O)N1CCOc2cc3sc(C(=O)Nc4cc(Cl)nc(Oc5ccc(Cl)cc5)c4)cc3cc21 [Example 1, N-(2-chloro-6-(4-chlorophenoxy)pyridin-4-yl)-1-(methylsulfonyl)-2,3-dihydro-1H-thieno[3′,2′:4,5]benzo[1,2-b][1,4]oxazine-7-carboxamide]",0.0026 µM,0.0083 µM,–
"CS(=O)(=O)[C@]1(F)CCOc2cc3sc(C(=O)Nc4cc(Cl)nc(Oc5ccc(Cl)cc5)c4)cc3cc21 [Example 46, (R)—N-(2-chloro-6-(4-chlorophenoxy)pyridin-4-yl)-4-fluoro-4-(methylsulfonyl)-3,4-dihydro-2H-thieno[3,2-g]chromene-7-carboxamide]",0.14 µM,0.56 µM,> 0.1 µM
"CS(=O)(=O)N1CCNc2cc3sc(C(=O)Nc4cc(Cl)nc(Oc5ccc(Cl)cc5)c4)cc3cc21 [Example 50, N-(2-chloro-6-(4-chlorophenoxy)pyridin-4-yl)-1-(methylsulfonyl)-1,2,3,4-tetrahydrothieno[2,3-g]quinoxaline-7-carboxamide]",0.0082 µM,0.0091 µM,–
"CS(=O)(=O)N1CCCOc2cc3sc(C(=O)Nc4cc(Cl)nc(Oc5ccc(Cl)cc5)c4)cc3cc21 [Example 3, N-(2-chloro-6-(4-chlorophenoxy)pyridin-4-yl)-1-(methylsulfonyl)-1,2,3,4-tetrahydrothieno[3′,2′:4,5]benzo[1,2-b][1,4]oxazepine-8-carboxamide]",0.01 µM,0.045 µM,–
"CS(=O)(=O)N1CCCc2cc3sc(C(=O)Nc4cc(Cl)nc(Oc5ccc(Cl)cc5)c4)cc3cc21 [Example 6, N-(2-chloro-6-(4-chlorophenoxy)pyridin-4-yl)-5-(methylsulfonyl)-5,6,7,8-tetrahydrothieno[2,3-g]quinoline-2-carboxamide]",0.003 µM,0.0055 µM,–
"CC1(C)CN(S(C)(=O)=O)c2cc3cc(C(=O)Nc4cc(Cl)nc(Oc5ccc(Cl)cc5)c4)sc3cc2O1 [Example 2, N-(2-chloro-6-(4-chlorophenoxy)pyridin-4-yl)-3,3-dimethyl-1-(methylsulfonyl)-2,3-dihydro-1H-thieno[3′,2′:4,5]benzo[1,2-b][1,4]oxazine-7-carboxamide]",0.17 µM,1.2 µM,–
"CC1(C)CCN(S(C)(=O)=O)c2cc3cc(C(=O)Nc4cc(Cl)nc(Oc5ccc(Cl)cc5)c4)sc3cc21 [Example 4, N-(2-chloro-6-(4-chlorophenoxy)pyridin-4-yl)-8,8-dimethyl-5-(methylsulfonyl)-5,6,7,8-tetrahydrothieno[2,3-g]quinoline-2-carboxamide]",0.93 µM,4.1 µM,–

# More lines, now with the values ahead:
IC50 (STAT3),IC50 (NCI-N87),IC50 (MDA-MB-468),SMILES
0.014 µM,–,–,"CS(=O)(=O)C1CCOc2cc3sc(C(=O)Nc4cc(Cl)nc(Oc5cccc(Cl)c5F)c4)cc3cc21 (stereo not drawn) [Example 36, N-(2-chloro-6-(3-chloro-2-fluorophenoxy)pyridin-4-yl)-4-(methylsulfonyl)-3,4-dihydro-2H-thieno[3,2-g]chromene-7-carboxamide]"
0.0088 µM,–,–,"Cc1ccc(Oc2cc(NC(=O)c3cc4cc5c(cc4s3)OCCC5S(C)(=O)=O)cc(Cl)n2)cc1Cl (stereo not drawn) [Example 38, N-(2-chloro-6-(3-chloro-4-methylphenoxy)pyridin-4-yl)-4-(methylsulfonyl)-3,4-dihydro-2H-thieno[3,2-g]chromene-7-carboxamide]"
0.011 µM,0.018 µM,0.0051 µM,"Cc1cc(Cl)ccc1Oc1cc(NC(=O)c2cc3cc4c(cc3s2)OCCC4S(C)(=O)=O)cc(Cl)n1 (stereo not drawn) [Example 21, N-(2-chloro-6-(4-chloro-2-methylphenoxy)pyridin-4-yl)-4-(methylsulfonyl)-3,4-dihydro-2H-thieno[3,2-g]chromene-7-carboxamide]"
0.02 µM,0.025 µM,0.0085 µM,"COc1cc(Cl)cc(Oc2cc(NC(=O)c3cc4cc5c(cc4s3)OCCC5S(C)(=O)=O)cc(Cl)n2)c1 (stereo not drawn) [Example 30, N-(2-chloro-6-(3-chloro-5-methoxyphenoxy)pyridin-4-yl)-4-(methylsulfonyl)-3,4-dihydro-2H-thieno[3,2-g]chromene-7-carboxamide]"
1.5 µM,1.8 µM,0.086 µM,"CS(=O)(=O)[C@@H]1CCOc2cc3sc(C(=O)Nc4cc(Cl)nc(Oc5ccc(Cl)cc5)c4)cc3cc21 [Example 44, (R)—N-(2-chloro-6-(4-chlorophenoxy)pyridin-4-yl)-4-(methylsulfonyl)-3,4-dihydro-2H-thieno[3,2-g]chromene-7-carboxamide]"
0.014 µM,–,–,"CS(=O)(=O)C1CCOc2cc3sc(C(=O)Nc4cc(Cl)nc(Oc5ccccc5C(F)(F)F)c4)cc3cc21 (stereo not drawn) [Example 39, N-(2-chloro-6-(2-(trifluoromethyl)phenoxy)pyridin-4-yl)-4-(methylsulfonyl)-3,4-dihydro-2H-thieno[3,2-g]chromene-7-carboxamide]"
0.018 µM,0.035 µM,0.0089 µM,"Cc1ccc(Oc2cc(NC(=O)c3cc4cc5c(cc4s3)OCCC5S(C)(=O)=O)cc(Cl)n2)cc1 (stereo not drawn) [Example 15, N-(2-chloro-6-(p-tolyloxy)pyridin-4-yl)-4-(methylsulfonyl)-3,4-dihydro-2H-thieno[3,2-g]chromene-7-carboxamide]"
0.015 µM,0.02 µM,0.0043 µM,"CS(=O)(=O)C1CCOc2cc3sc(C(=O)Nc4cc(Cl)nc(Oc5cc(Cl)cc(Cl)c5)c4)cc3cc21 (stereo not drawn) [Example 18, N-(2-chloro-6-(3,5-dichlorophenoxy)pyridin-4-yl)-4-(methylsulfonyl)-3,4-dihydro-2H-thieno[3,2-g]chromene-7-carboxamide]"
0.01 µM,–,–,"CS(=O)(=O)C1CCOc2cc3sc(C(=O)Nc4cc(Cl)nc(Oc5cc(Cl)ccc5F)c4)cc3cc21 (stereo not drawn) [Example 35, N-(2-chloro-6-(5-chloro-2-fluorophenoxy)pyridin-4-yl)-4-(methylsulfonyl)-3,4-dihydro-2H-thieno[3,2-g]chromene-7-carboxamide]"

# Source: US10633394B2, “Heterocyclic derivatives and use thereof” (C & C RESEARCH LABORATORIES, priority 2014, dated 2020)
